The source of these data is ChEMBL document CHEMBL4732086, “Targeting nuclear protein TDP-43 by cell division cycle kinase 7 inhibitors: A new therapeutic approach for amyotrophic lateral sclerosis” (Eur J Med Chem, 2021).

Structures are written as SMILES. Active and inactive are the calls of the source. No cut-off for these calls is given here.

The target in assay [1] is CDC7/DBF4 (Cell division cycle 7-related protein kinase/Activator of S phase kinase) (Homo sapiens) (UniProt Q9UBU7+O00311). As to the kind of experiment: Inhibition of recombinant human CDC7/Dbf4 expressed in baculovirus infected Sf9 insect cells assessed as inhibition of fluorescein labelled substrate phosphorylation in presence of ATP at 10 uM measured after 60 mins by TR-FRET assay. A general note: In TR-FRET formats the signal depends on donor and acceptor labels being close together.
Chain of CDC7/DBF4 (Cell division cycle 7-related protein kinase/Activator of S phase kinase) (Homo sapiens) (O00311 whole entry, looked up): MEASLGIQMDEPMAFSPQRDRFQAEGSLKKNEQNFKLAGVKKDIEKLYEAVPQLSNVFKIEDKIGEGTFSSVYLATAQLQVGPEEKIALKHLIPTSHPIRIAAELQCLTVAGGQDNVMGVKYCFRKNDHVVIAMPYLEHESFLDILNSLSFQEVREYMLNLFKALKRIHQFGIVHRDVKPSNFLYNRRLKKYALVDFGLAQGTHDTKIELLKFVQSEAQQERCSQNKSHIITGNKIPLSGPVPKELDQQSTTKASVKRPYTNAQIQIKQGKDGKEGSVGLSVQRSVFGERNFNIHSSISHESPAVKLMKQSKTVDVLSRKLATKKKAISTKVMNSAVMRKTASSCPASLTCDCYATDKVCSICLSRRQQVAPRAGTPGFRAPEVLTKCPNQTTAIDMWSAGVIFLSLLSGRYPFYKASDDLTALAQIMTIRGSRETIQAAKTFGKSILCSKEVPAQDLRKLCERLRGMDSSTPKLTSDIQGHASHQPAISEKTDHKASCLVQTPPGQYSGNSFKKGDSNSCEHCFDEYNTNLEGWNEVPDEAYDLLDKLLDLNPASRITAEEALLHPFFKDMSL
Chain of CDC7/DBF4 (Cell division cycle 7-related protein kinase/Activator of S phase kinase) (Homo sapiens) (Q9UBU7 whole entry, looked up): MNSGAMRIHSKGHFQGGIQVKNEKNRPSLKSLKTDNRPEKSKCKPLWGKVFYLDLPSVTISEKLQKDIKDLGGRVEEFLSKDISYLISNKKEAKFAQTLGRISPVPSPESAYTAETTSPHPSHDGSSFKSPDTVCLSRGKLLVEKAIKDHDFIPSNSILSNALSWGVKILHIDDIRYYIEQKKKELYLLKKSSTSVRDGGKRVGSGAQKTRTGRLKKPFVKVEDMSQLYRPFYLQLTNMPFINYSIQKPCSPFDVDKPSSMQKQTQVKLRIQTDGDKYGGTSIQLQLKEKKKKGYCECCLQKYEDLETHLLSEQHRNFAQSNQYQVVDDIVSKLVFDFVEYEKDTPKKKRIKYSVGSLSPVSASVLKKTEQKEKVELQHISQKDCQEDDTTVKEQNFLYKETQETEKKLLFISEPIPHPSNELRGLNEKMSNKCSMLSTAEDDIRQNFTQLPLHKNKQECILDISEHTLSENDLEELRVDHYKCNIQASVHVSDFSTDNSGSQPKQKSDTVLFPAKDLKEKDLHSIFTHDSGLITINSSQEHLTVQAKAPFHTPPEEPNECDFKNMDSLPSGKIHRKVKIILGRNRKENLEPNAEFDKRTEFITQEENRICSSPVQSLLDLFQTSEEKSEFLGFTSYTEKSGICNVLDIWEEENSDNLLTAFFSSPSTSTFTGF

Assay [2] addresses Cell division cycle 7-related protein kinase (Homo sapiens) (UniProt O00311). Description: Inhibition of human CDC7 in human SH-SY5Y cells assessed as prevention of ethacrynic acid-induced cell death preincubated for 1 hr followed by incubation with ethacrynic acid for 24 hrs measured at 10 uM by MTT assay relative to control. The class given is cell-based. On the technique in general: Tetrazolium assays rely on reduction of a dye to a coloured formazan, in cell work by metabolically active cells.

For assay [3], the target named is CDC7/DBF4 (Cell division cycle 7-related protein kinase/Activator of S phase kinase) (Homo sapiens, UniProt O00311). As to the kind of experiment: Inhibition of recombinant human CDC7/Dbf4 expressed in baculovirus infected Sf9 insect cells assessed as inhibition of fluorescein labelled substrate phosphorylation in presence of ATP measured after 60 mins by TR-FRET assay.
Chain of CDC7/DBF4 (Cell division cycle 7-related protein kinase/Activator of S phase kinase) (Q9UBU7 whole entry): as the sequence (Q9UBU7 whole entry, looked up) above
Chain of CDC7/DBF4 (Cell division cycle 7-related protein kinase/Activator of S phase kinase) (O00311 whole entry): as the sequence (O00311 whole entry, looked up) above

Chain of Cell division cycle 7-related protein kinase (Homo sapiens) (O00311 whole entry, looked up): as above

One may read the inhibition as the relative decrease from the control value, in per cent. As to `Clc1ccccc1CCSc1ncnc2c1ncn2CCc1ccccc1Cl`, the inhibition in assay [1] stood at 4%.

Take `Clc1ccc(CCSc2ncnc3c2ncn3CCc2ccc(Cl)cc2)cc1`: the inhibition in assay [1] amounted to 3%.

Usually IC50 stands for the concentration at which inhibition is half-maximal. For the compound `Brc1ccc(CSc2[nH]cnc3ncnc2-3)cc1`, the inhibition result in assay [2] was “Active”. In assay [3], the IC50 was 440 nM.

With `Ic1ccc(CSc2ncnc3[nH]cnc23)cc1`, the inhibition result in assay [2] was “Active”. In assay [3], the IC50 was determined as 300 nM.

In the case of `Fc1ccc(CCSc2ncnc3c2ncn3CCc2ccc(F)cc2)cc1`, in assay [1], the inhibition worked out at 12%.

For the compound `FC(F)(F)c1cccc(CSc2ncnc3[nH]cnc23)c1`, the inhibition result in assay [2] is “Active”. In addition, the IC50 in assay [3] came to 320 nM.

For the compound `CC(=O)Nc1ccc(CSc2ncnc3[nH]cnc23)cc1`, in assay [3], the concentration for half-maximal inhibition (IC50) was 470 nM.

With `Clc1cccc(CCSc2ncnc3[nH]cnc23)c1`, the inhibition result in assay [2] was “Active”. Besides, the IC50 in assay [3] worked out at 300 nM.

With `FC(F)(F)c1ccc(CSc2ncnc3[nH]cnc23)cc1`, the inhibition result in assay [2] was “Active”. For the same compound, the half-inhibitory concentration (IC50) in assay [3] stood at 360 nM.

Take `FC(F)(F)c1ccccc1CSc1ncnc2c1ncn2Cc1ccccc1C(F)(F)F`: the inhibition in assay [1] came out at 9%.

`Clc1cccc(CNc2ncnc3nc[nH]c23)c1`: the IC50 in assay [3] was 3060 nM.

For `Clc1ccc(CSc2[nH]cnc3ncnc2-3)cc1`, in assay [2], the inhibition result is “Active”. The IC50 in assay [3] turned out to be 180 nM.

Consider `COc1cccc(CSc2ncnc3[nH]cnc23)c1`, for which the inhibition entry in assay [2] was “Active”. Besides, the half-inhibitory concentration (IC50) in assay [3] was 240 nM.

Regarding `Ic1cccc(CSc2ncnc3[nH]cnc23)c1`, in assay [2], the inhibition entry is “Active”. The IC50 in assay [3] turned out to be 80 nM.

`Brc1ccc(Sc2ncnc3[nH]cnc23)cc1`: the half-inhibitory concentration (IC50) in assay [3] is 1380 nM.

Take `Brc1cccc(CSc2ncnc3sccc23)c1`: in assay [1], the inhibition is 11%.

On to `FC(F)(F)c1ccccc1CSc1ncnc2[nH]cnc12`, for which the inhibition result in assay [2] was “Active”. In addition, the half-maximal inhibitory concentration (IC50) in assay [3] stood at 250 nM.

Regarding `N#Cc1cccc(CSc2ncnc3[nH]cnc23)c1`, the IC50 in assay [3] was 340 nM.

In the case of `c1ccc(CSc2ncnc3c2ncn3Cc2ccccc2)cc1`, in assay [1], the inhibition was 0%.

As to `Ic1ccccc1CSc1ncnc2c1ncn2Cc1ccccc1I`, in assay [1], the inhibition is 4%.

As to `O=[N+]([O-])c1ccc(CSc2ncnc3[nH]cnc23)cc1`, the inhibition result in assay [2] was “Active”. Moreover, the IC50 in assay [3] turned out to be 130 nM.

As to `Clc1ccc(CCSc2ncnc3[nH]cnc23)cc1`, the inhibition result in assay [2] was “Active”. Also, the 50% inhibitory concentration (IC50) in assay [3] was found to be 140 nM.

Take `Brc1cccc(CSc2ncnc3[nH]ccc23)c1`: the IC50 in assay [3] was found to be 390 nM.

Turning to `Fc1ccc(CCSc2ncnc3[nH]cnc23)cc1`, the inhibition result in assay [2] was “Active”. Moreover, the IC50 in assay [3] amounted to 390 nM.

Take `O=C(CSc1[nH]cnc2ncnc1-2)c1ccc([N+](=O)[O-])cc1`: in assay [3], the IC50 was determined as 3110 nM.

`Clc1ccccc1CCSc1ncnc2[nH]cnc12`: the inhibition entry in assay [2] is “Active”. For the same compound, the IC50 in assay [3] is 190 nM.

For the compound `O=[N+]([O-])c1cccc(CSc2ncnc3[nH]cnc23)c1`, the IC50 in assay [3] came out at 190 nM.

For the compound `Clc1ccccc1CSc1ncnc2[nH]cnc12`, the inhibition result in assay [2] was “Active”. Besides, the IC50 in assay [3] was 90 nM.

As for `Clc1cccc(COc2ncnc3[nH]cnc23)c1`, the inhibition result in assay [2] was “Active”. Moreover, the 50% inhibitory concentration (IC50) in assay [3] was 190 nM.

Consider `Fc1cccc(CSc2ncnc3[nH]cnc23)c1`, for which, in assay [2], the inhibition entry is “Active”. In assay [3], the IC50 stood at 360 nM.

`O=C(CSc1[nH]cnc2ncnc1-2)c1ccc(Cl)cc1`: in assay [3], the IC50 was 4150 nM.

For `CSc1ccc(CSc2ncnc3[nH]cnc23)cc1`, the inhibition result in assay [2] was “Active”. In addition, in assay [3], the half-inhibitory concentration (IC50) amounted to 140 nM.

As to `c1ccc(CSc2ncnc3[nH]ccc23)cc1`, the inhibition result in assay [2] was “Active”. The IC50 in assay [3] stood at 230 nM.

On to `O=C(CSc1ncnc2[nH]cnc12)c1ccc(Br)cc1`, for which the IC50 in assay [3] came out at 2120 nM.

For the compound `Brc1cccc(CSc2ncnc3[nH]cnc23)c1`, in assay [3], the IC50 amounted to 130 nM.

On to `Clc1cccc(CCSc2ncnc3c2ncn3CCc2cccc(Cl)c2)c1`, for which the inhibition in assay [1] was 8%.

For `c1ccc(CSc2ncnc3sccc23)cc1`, the inhibition in assay [1] stood at 18%.

For the compound `Clc1ccccc1CSc1ncnc2c1ncn2Cc1ccccc1Cl`, the inhibition in assay [1] was 7%.

Regarding `Brc1ccc(COc2ncnc3[nH]cnc23)cc1`, the inhibition result in assay [2] is “Active”. Further, in assay [3], the IC50 came to 910 nM.

Turning to `Ic1ccccc1CSc1ncnc2[nH]cnc12`, the inhibition result in assay [2] was “Active”. In assay [3], the IC50 turned out to be 580 nM.

Regarding `COc1ccc(Sc2ncnc3[nH]cnc23)cc1`, in assay [3], the IC50 was found to be 1720 nM.

As to `c1ccc(COc2[nH]cnc3ncnc2-3)cc1`, the IC50 in assay [3] was found to be 170 nM.

With `N#Cc1ccc(CSc2ncnc3[nH]cnc23)cc1`, the IC50 in assay [3] is 290 nM.

Regarding `OCc1ccc(CSc2ncnc3[nH]cnc23)cc1`, the IC50 in assay [3] worked out at 300 nM.

`Clc1cccc(CSc2ncnc3c2ncn3Cc2cccc(Cl)c2)c1`: the inhibition in assay [1] was determined as 30%.
